The source of these data is BindingDB's records for patent US12466821 (Novartis, 2025).

For this assay, the target named is T1, DNA polymerase catalytic subunit (Human herpesvirus 1 (strain 17), UniProt P04293).
T1 sequence (P04293 whole entry): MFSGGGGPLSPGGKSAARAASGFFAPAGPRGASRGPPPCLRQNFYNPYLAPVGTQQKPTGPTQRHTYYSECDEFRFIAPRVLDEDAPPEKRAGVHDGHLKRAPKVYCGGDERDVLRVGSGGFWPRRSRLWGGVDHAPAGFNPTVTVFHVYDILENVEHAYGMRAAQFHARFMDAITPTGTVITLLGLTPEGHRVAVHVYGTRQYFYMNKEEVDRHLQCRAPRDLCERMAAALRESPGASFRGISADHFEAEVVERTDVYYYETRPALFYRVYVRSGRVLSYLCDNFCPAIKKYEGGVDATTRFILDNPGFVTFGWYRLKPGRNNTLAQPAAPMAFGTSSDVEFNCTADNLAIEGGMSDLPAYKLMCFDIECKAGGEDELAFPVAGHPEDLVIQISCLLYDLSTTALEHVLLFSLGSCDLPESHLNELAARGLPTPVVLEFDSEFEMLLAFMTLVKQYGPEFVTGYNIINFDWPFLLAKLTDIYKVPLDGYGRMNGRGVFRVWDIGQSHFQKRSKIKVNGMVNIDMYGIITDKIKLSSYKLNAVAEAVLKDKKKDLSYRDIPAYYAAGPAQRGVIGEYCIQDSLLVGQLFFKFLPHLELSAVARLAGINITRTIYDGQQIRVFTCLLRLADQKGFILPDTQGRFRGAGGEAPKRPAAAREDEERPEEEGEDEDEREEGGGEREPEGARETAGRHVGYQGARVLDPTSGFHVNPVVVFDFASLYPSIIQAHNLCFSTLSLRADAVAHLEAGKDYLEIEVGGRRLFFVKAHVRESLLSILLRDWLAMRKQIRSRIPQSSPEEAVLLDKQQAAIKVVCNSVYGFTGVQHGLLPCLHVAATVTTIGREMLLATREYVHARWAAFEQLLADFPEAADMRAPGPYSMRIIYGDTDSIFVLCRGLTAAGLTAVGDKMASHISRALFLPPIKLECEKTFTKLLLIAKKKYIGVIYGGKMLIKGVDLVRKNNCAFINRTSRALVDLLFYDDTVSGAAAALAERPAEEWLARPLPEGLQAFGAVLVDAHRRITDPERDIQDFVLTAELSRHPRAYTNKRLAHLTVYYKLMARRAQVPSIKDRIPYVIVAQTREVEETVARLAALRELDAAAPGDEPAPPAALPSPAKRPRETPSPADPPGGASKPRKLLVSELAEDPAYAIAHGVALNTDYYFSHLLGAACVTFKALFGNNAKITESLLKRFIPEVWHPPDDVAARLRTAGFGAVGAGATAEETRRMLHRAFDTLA
As usually defined, the IC50 is the concentration needed to halve the response being measured. High values mean weaker potency in that assay, low ones greater potency in that assay. Turning to `O=C(NCc1ccc(Cl)cc1)c1ccc2n(c1=O)CCN(CC1(C(=O)N3CCC3)CC1)C2=O` [US12466821, Example 208], the midpoint of inhibition, the IC50, lay at 4530 nM. In the case of `Cc1cc(C(=O)NCc2ccc(Cl)cc2)c(=O)n2c1C(=O)N(CCC1(S(C)(=O)=O)CC1)CC2` [US12466821, Example 151], half-maximal inhibition (IC50) was put at 9250 nM.

In turn, `CS(=O)(=O)C1(CCN2CCn3c(ccc(C(=O)NCc4ccc(Cl)cc4)c3=O)C2=O)CC1` [US12466821, Example 170] had an IC50 of 9350 nM.

In turn, `CS(=O)(=O)CCCN1CCn2c(c(C(F)(F)F)cc(C(=O)NCc3ccc(Cl)cc3)c2=O)C1=O` [US12466821, Example 146] registered an IC50 of 14800 nM. `Cc1cc(C(=O)NCc2ccc(Cl)cc2)c(=O)n2c1C(=O)N(CC1(N3CCCS3(=O)=O)CC1)CC2` [US12466821, Example 150] came in with an IC50 of 65.3 nM. The compound `CS(=O)(=O)CCCN1CCn2c(c(C3CC3)cc(C(=O)NCc3ccc(Cl)cc3)c2=O)C1=O` [US12466821, Example 130] registered an IC50 of 2420 nM. The compound `N#Cc1ccc(CNC(=O)c2ccc3n(c2=O)CCN(CC2(S(=O)(=O)CCCO)CC2)C3=O)cc1F` [US12466821, Example 23] showed an IC50 of 124 nM.

Regarding `O=C(NCc1ccc(Cl)cc1)c1cc(CC2CC2)c2n(c1=O)CCN(CCN1CCCS1(=O)=O)C2=O` [US12466821, Example 133], the IC50 came to 324 nM. For `CS(=O)(=O)C1(CCN2CCn3c(c(F)cc(C(=O)NCc4ccc(Cl)cc4)c3=O)C2=O)CC1` [US12466821, Example 165], 137000 nM corresponded to half-maximal inhibition (IC50). Compound `CN(C)S(=O)(=O)C1(CN2CCn3c(ccc(C(=O)NCc4ccc(C#N)cc4)c3=O)C2=O)CC1` [US12466821, Example 90-2] displayed an IC50 of 19.8 nM.

For the compound `N#CCS(=O)(=O)C1(CN2CCn3c(ccc(C(=O)NCc4ccc(Cl)cc4)c3=O)C2=O)CC1` [US12466821, Example 108-1], it took 116 nM to reach half-maximal inhibition (IC50).

In turn, `NC1(CN2CCn3c(ccc(C(=O)NCc4ccc(Cl)cc4)c3=O)C2=O)CC1` [US12466821, Example 197] came in with an IC50 of 3600 nM. Compound `Cc1cc(C(=O)NCc2ccc(Cl)cc2)c(=O)n2c1C(=O)N(CC1(CS(C)(=O)=O)CC1)CC2` [US12466821, Example 154] displayed an IC50 of 283 nM.

`O=C(NCc1ccc(Cl)cc1)c1cc(C2CC2)c2n(c1=O)CCN(CCN1CCCS1(=O)=O)C2=O` [US12466821, Example 131] registered an IC50 of 311 nM. With `O=C(NCc1ccc(Cl)cc1)c1cc(C(F)F)c2n(c1=O)CCN(CCN1CCCS1(=O)=O)C2=O` [US12466821, Example 144], the IC50 was determined as 1110 nM. For `CN(C)C(=O)C1(CN2CCn3c(ccc(C(=O)NCc4ccc(Cl)cc4)c3=O)C2=O)CC1` [US12466821, Example 209] the value was 1640 nM; for `O=C(NCc1ccc(Cl)cc1)c1ccc2n(c1=O)CCN(CC1(C(=O)N3CCOCC3)CC1)C2=O` [US12466821, Example 211], 4770 nM. `CS(=O)(=O)C1(CN2CCn3c(c(F)cc(C(=O)NCc4ccc(Cl)cc4)c3=O)C2=O)CC1` [US12466821, Example 167]: it took 71.8 nM to reach half-maximal inhibition (IC50). On to `CN(CCN1CCn2c(c(F)cc(C(=O)NCc3ccc(Cl)cc3)c2=O)C1=O)S(C)(=O)=O` [US12466821, Example 160], for which half-maximal inhibition (IC50) required 2020 nM. Turning to `CS(=O)(=O)CCN1CCn2c(ccc(C(=O)NCc3ccc(Cl)cc3)c2=O)C1=O` [US12466821, Example 51], the half-inhibitory concentration (IC50) came to 789 nM. `CS(=O)(=O)CC1(CN2CCn3c(c(F)cc(C(=O)NCc4ccc(Cl)cc4)c3=O)C2=O)CC1` [US12466821, Example 168] displayed an IC50 of 292 nM. Turning to `CCOC(=O)C1(CN2CCn3c(ccc(C(=O)NCc4ccc(Cl)cc4)c3=O)C2=O)CC1` [US12466821, Example 207], half-maximal inhibition (IC50) was put at 2900 nM. `CCc1cc(C(=O)NCc2ccc(Cl)cc2)c(=O)n2c1C(=O)N(CCN1CCCS1(=O)=O)CC2` [US12466821, Example 135]: the IC50 turned out to be 342 nM.
